Source: patent US10851108B2, “Substituted bicyclic heterocyclic compounds” (BRISTOL-MYERS SQUIBB COMPANY, priority 2016, dated 2020)
pIC50: −log10 of the molar value.

How the values were obtained:
hERG = hERG (Homo sapiens (Human), UniProt Q12809); test: hERG Manual Patch Clamp Assay; type: cell-based; details: for inhibition at 1 µM / inhibition at 3 µM / inhibition at 10 µM: human, HEK 293 cells stably expressing hERG channels; for inhibition at 1 µM: pH 7.4, 1 μM, read-out: hERG EP IC50 (% Inhibition at 1 μM); for inhibition at 3 µM: pH 7.4, 3 uM, read-out: hERG EP % Inhibition at 3 uM; for inhibition at 10 µM: pH 7.4, 10 uM, read-out: hERG EP % Inhibition at 10 uM
Description: hERG Manual Patch Clamp Assay
hERG electrophysiology assay: The experimental compounds were assessed for hERG activity on HEK 293 cells stably expressing hERG channels using patch clamp technique. Coverslips plated with hERG expressing cells were placed in the experimental chamber and were perfused with a solution composed of (in mM): 140 NaCl, 4 KCl, 1.8 CaCl2, 1 MgCl2, 10 Glucose, 10 HEPES (pH 7.4, NaOH) at room temperature. Borosilicate patch pipettes had tip resistances of 2-4 Mohms when filled with an internal solution containing: 130 KCl, 1 MgCl2, 1 CaCl2, 10 EGTA, 10 HEPES, 5 ATP-K2 (pH 7.2, KOH). The cells were clamped at −80 mV in whole cell configuration using an Axopatch 200B (Axon instruments, Union City, Calif.) patch clamp amplifier controlled by pClamp (Axon instruments) software. Upon formation of a gigaseal, the following voltage protocol was repeatedly (0.05 Hz) applied to record tail currents: depolarization step from −80 mV to +20 mV for 2 seconds followed by a hyperpolarization step to −65 mV (3 seconds) to elicit tail currents. Compounds were applied after stabilization of tail current. First, tail currents were recorded in presence of extracellular solution alone (control) and subsequently, in extracellular solution containing increasing compound concentrations. Each compound concentration was applied for 2-5 minutes. The percentage inhibition at each concentration was calculated as reduction in peak tail current with respect to the peak tail current recorded in the presence of control solution. Data analysis was performed in a custom made template. The percent inhibitions at different concentrations were plotted to obtain a concentration response curve, which was subsequently fitted with a four parameter equation to calculate hERG IC50 value.
A lower hERG % Inhibition value indicates less inhibition of the hERG current

hROMK (human Kir1.1) = hROMK (human Kir1.1) (Homo sapiens (Human), UniProt P48048); test: Thallium Flux Assay; type: cell-based; details: CHO T-Rex hROMK stable cell line, 10-point concentration response; read-out: hROMK Th+ Flux IC50
Outline: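 CHO T-Rex cells, doxycycline-induced (0.5 μg/ml) one day before, FluxOR dye-loaded; compounds 30 min, then Tl+ stimulus (final 3 mM Tl2SO4, 0.15 mM K2SO4) with ouabain in chloride-free buffer. Fluorescence 488/525 nm for 90 s; IC50 from 10-point curve; DMSO 0.5 or 1%.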

Sequence of hROMK (human Kir1.1) (P48048 whole entry): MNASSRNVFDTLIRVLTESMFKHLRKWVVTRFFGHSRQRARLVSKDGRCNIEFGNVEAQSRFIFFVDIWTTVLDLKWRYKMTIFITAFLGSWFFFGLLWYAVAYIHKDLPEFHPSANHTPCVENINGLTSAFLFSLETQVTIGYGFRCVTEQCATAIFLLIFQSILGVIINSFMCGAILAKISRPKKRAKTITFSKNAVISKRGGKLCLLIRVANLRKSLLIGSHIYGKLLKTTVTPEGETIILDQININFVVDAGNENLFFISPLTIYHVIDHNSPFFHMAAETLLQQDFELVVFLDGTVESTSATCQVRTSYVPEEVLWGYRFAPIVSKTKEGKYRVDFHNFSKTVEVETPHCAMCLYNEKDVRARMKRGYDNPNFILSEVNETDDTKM
Sequence of hERG (Q12809 whole entry): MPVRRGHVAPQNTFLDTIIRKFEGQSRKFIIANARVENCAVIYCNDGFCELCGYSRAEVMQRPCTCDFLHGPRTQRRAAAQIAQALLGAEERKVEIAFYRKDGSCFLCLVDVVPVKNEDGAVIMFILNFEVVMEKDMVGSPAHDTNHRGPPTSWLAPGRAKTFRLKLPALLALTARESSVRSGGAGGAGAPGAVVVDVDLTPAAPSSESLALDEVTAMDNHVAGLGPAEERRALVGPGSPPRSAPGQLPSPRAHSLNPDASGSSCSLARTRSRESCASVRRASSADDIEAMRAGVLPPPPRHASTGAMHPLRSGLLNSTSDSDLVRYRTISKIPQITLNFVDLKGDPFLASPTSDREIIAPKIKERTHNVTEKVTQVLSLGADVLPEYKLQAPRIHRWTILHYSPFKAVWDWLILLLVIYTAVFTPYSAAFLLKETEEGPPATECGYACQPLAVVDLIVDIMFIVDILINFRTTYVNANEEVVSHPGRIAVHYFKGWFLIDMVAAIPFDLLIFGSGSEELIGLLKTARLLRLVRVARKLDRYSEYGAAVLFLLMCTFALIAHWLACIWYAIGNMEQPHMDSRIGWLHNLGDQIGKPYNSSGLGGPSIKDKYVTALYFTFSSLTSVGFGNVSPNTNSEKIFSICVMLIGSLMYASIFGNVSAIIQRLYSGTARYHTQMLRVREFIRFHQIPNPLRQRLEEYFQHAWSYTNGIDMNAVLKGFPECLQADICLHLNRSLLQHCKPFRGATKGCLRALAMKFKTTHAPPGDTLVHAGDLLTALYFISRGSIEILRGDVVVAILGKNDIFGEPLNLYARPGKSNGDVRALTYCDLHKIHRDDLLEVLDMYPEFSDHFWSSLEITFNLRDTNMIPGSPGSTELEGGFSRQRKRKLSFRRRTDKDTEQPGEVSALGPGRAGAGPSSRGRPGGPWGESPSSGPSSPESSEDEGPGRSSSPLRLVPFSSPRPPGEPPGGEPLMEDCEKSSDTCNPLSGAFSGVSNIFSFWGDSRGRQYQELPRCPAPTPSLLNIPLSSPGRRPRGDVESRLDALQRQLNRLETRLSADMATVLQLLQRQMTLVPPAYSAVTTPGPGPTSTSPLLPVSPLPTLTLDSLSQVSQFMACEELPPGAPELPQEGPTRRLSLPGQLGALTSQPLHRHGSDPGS

| pIC50 (hROMK (human Kir1.1)) | SMILES | inhibition at 1 µM (hERG) | inhibition at 3 µM (hERG) | inhibition at 10 µM (hERG) | hERG EP IC50 (% Inhibition at 1 μM) (hERG; 1 μM, HEK 293 cells stably expressing hERG) |
| --- | --- | --- | --- | --- | --- |
| 7.55 | Cc1c(C(O)CN2CCc3nc(-n4cc(C#N)c5ccccc54)ncc3C2)ccc2c1COC2=O (single isomer, unassigned) [Example 8-I, 1-(6-(2-hydroxy-2-(4-methyl-1-oxo-1,3-dihydroisobenzofuran-5-yl)ethyl)-5,6,7,8-tetrahydropyrido[4,3-d]pyrimidin-2-yl)-1H-indole-3-carbonitrile] | 98% |  |  |  |
| 7.52 | Cc1c(C(O)CN2CCc3nc(-n4nc(C#N)c5ccccc54)ncc3C2)ccc2c1COC2=O (single isomer, unassigned) [Example 60-I, 1-(6-(2-hydroxy-2-(4-methyl-1-oxo-1,3-dihydroisobenzofuran-5-yl)ethyl)-5,6,7,8-tetrahydropyrido[4,3-d]pyrimidin-2-yl)-1H-indazole-3-carbonitrile] | 92% |  |  |  |
| 6.42 | Cc1c(C(O)CN2CCc3nc(-n4ccc5cc(C#N)ccc54)ncc3C2)ccc2c1COC2=O (single isomer, unassigned) [Example 16-I, 1-(6-(2-hydroxy-2-(4-methyl-1-oxo-1,3-dihydroisobenzofuran-5-yl)ethyl)-5,6,7,8-tetrahydropyrido[4,3-d]pyrimidin-2-yl)-1H-indole-5-carbonitrile] | 25% |  |  |  |
| 6.74 | Cc1c(C(O)CN2CCc3nc(-n4ccc5ncccc54)ncc3C2)ccc2c1COC2=O (single isomer, unassigned) [Example 36-I, 5-(2-(2-(1H-pyrrolo[3,2-b]pyridin-1-yl)-7,8-dihydropyrido[4,3-d]pyrimidin-6(5H)-yl)-1-hydroxyethyl)-4-methyl-isobenzofuran-1(3H)-one] | 12% |  |  |  |
| 6.92 | Cc1c(C(O)CN2CCc3nc(Nc4ccc(C#N)c(F)c4)ncc3C2)ccc2c1COC2=O (single isomer, unassigned) [Example 28-I, 2-fluoro-4-((6-(2-hydroxy-2-(4-methyl-1-oxo-1,3-dihydroisobenzofuran-5-yl)ethyl)-5,6,7,8-tetrahydropyrido [4,3-d]pyrimidin-2-yl)amino)benzonitrile] | 91% |  |  |  |
| 7.27 | Cc1c(C(O)CN2CCc3nc(-n4ccc5c(C#N)cccc54)ncc3C2)ccc2c1COC2=O (single isomer, unassigned) [Example 1-I, 1-(6-(2-hydroxy-2-(4-methyl-1-oxo-1,3-dihydroisobenzofuran-5-yl)ethyl)-5,6,7,8-tetrahydropyrido[4,3-d]pyrimidin-2-yl)-1H-indole-4-carbonitrile] | 78% |  |  |  |
| 6.44 | Cc1c(C(O)CN2CCc3nc(-n4ccnc4)ncc3C2)ccc2c1COC2=O (single isomer, unassigned) [Example 66-I, 5-(2-(2-(1H-imidazol-1-yl)-7,8-dihydro-pyrido[4,3-d]pyrimidin-6(5H)-yl)-1-hydroxyethyl)-4-methylisobenzofuran-1(3H)-one] | 6% | 14% | 30% |  |
| 7.30 | Cc1c(C(O)CN2CCc3cc(Nc4ccc(C#N)c(F)c4)ccc3C2)ccc2c1COC2=O (single isomer, unassigned) [Example 32-I, 2-fluoro-4-((2-(2-hydroxy-2-(4-methyl-1-oxo-1,3-dihydroisobenzofuran-5-yl)ethyl)-1,2,3,4-tetrahydroisoquinolin-6-yl)amino) benzonitrile] | 100% |  |  |  |
| 6.65 | Cc1c(C(O)CN2CCc3nc(-n4ccnc4C)ncc3C2)ccc2c1COC2=O (single isomer, unassigned) [Example 59-I, 5-(1-hydroxy-2-(2-(2-methyl-1H-imidazol-1-yl)-7,8-dihydropyrido[4,3-d]pyrimidin-6(5H)-yl)ethyl)-4-methyl isobenzofuran-1(3H)-one] | 13% | 27% | 51% |  |
| 6.66 | Cc1c(C(O)CN2CCc3nc(Nc4cccnc4)ncc3C2)ccc2c1COC2=O (single isomer, unassigned) [Example 54-I, 5-(1-hydroxy-2-(2-(pyridin-3-ylamino)-7,8-dihydropyrido[4,3-d]pyrimidin-6(5H)-yl)ethyl)-4-methylisobenzofuran-1(3H)-one] | 32% |  |  |  |
| 7.51 | Cc1c(C(O)CN2CCc3nc(N4CCc5c(C#N)cccc54)ncc3C2)ccc2c1COC2=O (single isomer, unassigned) [Example 65-I, 1-(6-(2-hydroxy-2-(4-methyl-1-oxo-1,3-dihydroisobenzofuran-5-yl)ethyl)-5,6,7,8-tetrahydropyrido[4,3-d]pyrimidin-2-yl)indoline-4-carbonitrile] | 56% |  |  |  |
| 6.74 | Cc1c(C(O)CN2CCc3nc(-n4ncc5c(C#N)cncc54)ncc3C2)ccc2c1COC2=O (single isomer, unassigned) [Example 43-I, 1-(6-(2-hydroxy-2-(4-methyl-1-oxo-1,3-dihydroisobenzofuran-5-yl)ethyl)-5,6,7,8-tetrahydropyrido[4,3-d]pyrimidin-2-yl)-1H-pyrazolo[3,4-c]pyridine-4-carbonitrile] | 16% |  |  |  |
| 7.08 | Cc1c(C(O)CN2CCc3cc(Nc4ccc(C#N)c(F)c4)ccc3C2)ccc2c1COC2=O (single isomer, unassigned) [Example 32-II, 2-fluoro-4-((2-(2-hydroxy-2-(4-methyl-1-oxo-1,3-dihydroisobenzofuran-5-yl)ethyl)-1,2,3,4-tetrahydroisoquinolin-6-yl)amino) benzonitrile] |  |  |  | 97% @1 μM |
| 6.31 | Cc1c(C(CO)N2CCc3cc(Nc4ccc(C#N)c(F)c4)ccc3C2)ccc2c1COC2=O (single isomer, unassigned) [Example 33-I, 2-fluoro-4-((2-(2-hydroxy-1-(4-methyl-1-oxo-1,3-dihydroisobenzofuran-5-yl)ethyl)-1,2,3,4-tetrahydroisoquinolin-6-yl)amino) benzonitrile] |  |  |  |  |
| 5.82 | Cc1cc(Nc2ncc3c(n2)CCN(Cc2ccc4c(c2C)COC4=O)C3)ncc1C#N [Example 31, 4-methyl-6-((6-((4-methyl-1-oxo-1,3-dihydroisobenzofuran-5-yl)methyl)-5,6,7,8-tetrahydropyrido[4,3-d]pyrimidin-2-yl)amino) nicotinonitrile] |  |  |  |  |
